According to ChEMBL document CHEMBL1144487 (Bioorg Med Chem, 2007):

Experiments:
[1] = Cytotoxicity against rat K-ras transformed NRK K/1 cells after 5 days; type: cell-based; conditions: NRK K/1, 120 h, read-out: LC50 (the source's name)
[2] = Cytotoxicity against mouse 3LL cells after 5 days; type: cell-based; conditions: 120 h, read-out: LC50 (the source's name)
[3] = Differential index, LC50 for rat NRK 52E cells to LC50 for mouse 3LL cells; type: ADME, cell-based; conditions: NRK 52E cells versus 3LL cells
[4] = Cytotoxicity against rat N-ras transformed NRK N/4.2 cells after 5 days; type: cell-based; conditions: NRK N/4.2, 120 h, read-out: LC50 (the source's name)
[5] = Differential index, LC50 for rat NRK 52E cells to LC50 for rat N-ras transformed NRK N/4.2 cells; type: ADME, cell-based; conditions: NRK 52E cells versus N-ras transformed NRK N/4.2 cells
[6] = Differential index, LC50 for rat NRK 52E cells to LC50 for rat K-ras transformed NRK K/1 cells; type: ADME, cell-based; conditions: NRK 52E cells versus K-ras transformed NRK K/1 cells
[7] = Cytotoxicity against rat NRK 52E cells after 5 days; type: cell-based; conditions: read-out: LC50
[8] = Toxicity in mouse; type: organism-based; conditions: in vivo
[9] = Cytotoxicity against rat H-ras transformed NRK H/1.2 cells after 5 days; type: cell-based; conditions: NRK H/1.2, 120 h, read-out: LC50 (the source's name)
Mus musculus [10] = assay: Toxicity in nude mouse at 50 mg/kg/day after 7 days; type: organism-based; conditions: in vivo, 168 h
NRK [11] = assay: Inhibition of tumor growth in CD1 nu/nu mouse implanted with rat K-ras transformed NRK K/1 cells at 100 mg/kg/day, ip for 7 days on day 10 relative to control; type: functional; conditions: route intraperitoneal
Mus musculus [12] = assay: Toxicity in nude mouse at 10 mg/kg/day after 7 days; type: organism-based; conditions: in vivo, 168 h
[13] = Differential index, LC50 for rat NRK 52E cells to LC50 for rat H-ras transformed NRK H/1.2 cells; type: ADME, cell-based; conditions: NRK 52E cells versus H-ras transformed NRK H/1.2 cells
Mus musculus [14] = assay: Toxicity in nude mouse at 100 mg/kg/day after 7 days; type: organism-based; conditions: in vivo, 168 h
NRK [15] = assay: Inhibition of tumor growth in CD1 nu/nu mouse implanted with rat K-ras transformed NRK K/1 cells at 150 mg/kg/day, ip after 8 days relative to control; type: functional; conditions: 192 h, route intraperitoneal
Mus musculus [16] = assay: Toxicity in nude mouse at 300 mg/kg/day assessed as death after 8 days; type: organism-based; conditions: in vivo, 192 h
Mus musculus [17] = assay: Toxicity in nude mouse at 150 mg/kg/day assessed as death after 8 days; type: organism-based; conditions: in vivo, 192 h
NRK [18] = assay: Inhibition of tumor growth in CD1 nu/nu mouse implanted with rat K-ras transformed NRK K/1 cells at 300 mg/kg/day, ip after 8 days relative to control; type: functional; conditions: 192 h, route intraperitoneal

SMILES: CC(=O)NC1=CC(=O)c2ccc(-c3[nH]c(C(N)=O)cc4c5ccccc5nc3-4)nc2C1=O
- CC50 [1]: 350 nM
- CC50 [2]: 210 nM
- selectivity ratio [3]: 4.3
- CC50 [4]: 220 nM
- selectivity ratio [5]: 4.1
- selectivity ratio [6]: 2.5
- CC50 at 120 h [7]: 900 nM
- MTD [8]: 400 mg/kg
- CC50 [9]: 230 nM

SMILES: CCCC(=O)NC1=CC(=O)c2ccc(C)nc2C1=O
- CC50 [1]: > 3300 nM
- CC50 [2]: 2500 nM
- CC50 [4]: > 3300 nM
- CC50 at 120 h [7]: 2000 nM
- MTD [8]: < 10 mg/kg
- CC50 [9]: > 3300 nM

SMILES: CC(=O)NC1=CC(=O)c2ccc(C)nc2C1=O
- CC50 [1]: 5900 nM
- CC50 [2]: 2000 nM
- CC50 at 120 h [7]: 2400 nM
- MTD [8]: < 10 mg/kg
- CC50 [9]: 4400 nM

SMILES: CCCC(=O)NC1=CC(=O)c2ccc(C=O)nc2C1=O
- CC50 [1]: > 3300 nM
- CC50 [2]: 2500 nM
- CC50 [4]: > 3300 nM
- CC50 at 120 h [7]: 3000 nM
- MTD [8]: < 10 mg/kg
- CC50 [9]: 3300 nM

SMILES: COC(=O)c1[nH]c(-c2ccc3c(n2)C(=O)C(NC(C)=O)=CC3=O)c2nc3ccccc3c-2c1C
- CC50 [1]: 100 nM
- CC50 [2]: > 33000 nM
- Activity (Mus musculus [10]): Non-toxic
- selectivity ratio [3]: < 0.03
- selectivity ratio [6]: 9
- inhibition in vivo at 100 mg/kg/day (NRK [11]): 69%
- Activity (Mus musculus [12]): Non-toxic
- CC50 at 120 h [7]: 900 nM
- selectivity ratio [13]: 1.3
- Activity (Mus musculus [14]): Non-toxic
- CC50 [9]: 700 nM

SMILES: CC(=O)NC1=CC(=O)c2ccc(-c3nc(C(=O)OCCC(C)C)cc4c3[nH]c3ccccc34)nc2C1=O
- CC50 [1]: 90 nM
- CC50 [2]: 1690 nM
- inhibition in vivo at 150 mg/kg/day (NRK [15]): 88%
- selectivity ratio [3]: 1
- Activity (Mus musculus [16]): Non-toxic
- CC50 [4]: 1500 nM
- selectivity ratio [5]: 1.1
- selectivity ratio [6]: 18
- CC50 at 120 h [7]: 1620 nM
- selectivity ratio [13]: 1.1
- Activity (Mus musculus [17]): Non-toxic
- CC50 [9]: 1420 nM

SMILES: CCCCCCCCOC(=O)c1cc2c([nH]c3ccccc32)c(-c2ccc3c(n2)C(=O)C(NC(C)=O)=CC3=O)n1
- inhibition in vivo at 300 mg/kg/day (NRK [18]): 78%
- CC50 [1]: 250 nM
- CC50 [2]: > 33000 nM
- Activity (Mus musculus [16]): Non-toxic
- CC50 [4]: 9000 nM
- selectivity ratio [5]: 3.6
- selectivity ratio [6]: > 132
- CC50 at 120 h [7]: > 33000 nM
- selectivity ratio [13]: > 4.3
- Activity (Mus musculus [17]): Non-toxic
- CC50 [9]: 7600 nM

SMILES: NC1=CC(=O)c2ccc(-c3[nH]ccc4c5ccccc5nc3-4)nc2C1=O [DECARBOXYDEMETHYLLAVENDAMYCIN]
- CC50 [1]: 31 nM
- CC50 [2]: 250 nM
- selectivity ratio [3]: 0.4
- CC50 [4]: 60 nM
- selectivity ratio [5]: 1.6
- selectivity ratio [6]: 3.2
- CC50 at 120 h [7]: 100 nM
- selectivity ratio [13]: 0.9
- MTD [8]: 400 mg/kg
- CC50 [9]: 110 nM

SMILES: CCCCOC(=O)c1cc2c([nH]c3ccccc32)c(-c2ccc3c(n2)C(=O)C(NC(=O)CCC)=CC3=O)n1 [LAV12]
- CC50 [1]: 500 nM
- CC50 [2]: 2300 nM
- selectivity ratio [3]: 0.3
- CC50 [4]: 700 nM
- selectivity ratio [5]: 0.9
- selectivity ratio [6]: 1.3
- CC50 at 120 h [7]: 660 nM
- selectivity ratio [13]: 1.6
- CC50 [9]: 400 nM
